± gives the expanded uncertainty stated by the source.
Assay: osmotic coefficient (dimensionless); mn = molality of the nth substance listed, in mol/kg
Conditions: 298.1 K, 20 kPa, Liquid, isopiestic method

O=C(O)CC(=O)O [propanedioic acid] + O
Conditions | osmotic coefficient
m1 = 0.1216 | 1.144 ± 0.0083
m1 = 0.3009 | 0.456 ± 0.022
m1 = 0.5079 | 0.268 ± 0.029
m1 = 0.6604 | 0.274 ± 0.028
m1 = 0.7994 | 0.314 ± 0.027
m1 = 1.01 | 0.354 ± 0.025
m1 = 1.08 | 0.362 ± 0.026
m1 = 1.631 | 0.373 ± 0.024
m1 = 2.392 | 0.401 ± 0.023
m1 = 3.127 | 0.436 ± 0.022
m1 = 4.097 | 0.455 ± 0.021
m1 = 5.12 | 0.469 ± 0.021
m1 = 6.369 | 0.498 ± 0.019
m1 = 9.545 | 0.525 ± 0.022

O=C(O)C(O)C(O)C(=O)O (centres undefined) [2,3-dihydroxybutanedioic acid] + O
Conditions | osmotic coefficient
m1 = 0.3554 | 0.461 ± 0.023
m1 = 0.51 | 0.382 ± 0.024
m1 = 0.698 | 0.313 ± 0.027
m1 = 1.074 | 0.286 ± 0.028
m1 = 1.268 | 0.285 ± 0.028
m1 = 1.739 | 0.283 ± 0.028
m1 = 2.361 | 0.292 ± 0.03
m1 = 2.404 | 0.292 ± 0.027
m1 = 3.449 | 0.322 ± 0.028
m1 = 4.311 | 0.351 ± 0.025
m1 = 5.203 | 0.379 ± 0.024
m1 = 6.517 | 0.416 ± 0.023
m1 = 7.737 | 0.437 ± 0.022

CCCC(=O)O [butanoic acid] + O
Conditions | osmotic coefficient
m1 = 0.2966 | 1.051 ± 0.0094
m1 = 0.3972 | 1.03 ± 0.012
m1 = 0.7027 | 0.9809 ± 0.0023
m1 = 0.9898 | 0.9364 ± 0.0052
m1 = 1.539 | 0.8612 ± 0.0079
m1 = 2.501 | 0.755 ± 0.011
m1 = 2.652 | 0.74 ± 0.011
m1 = 4.544 | 0.598 ± 0.016
m1 = 5.353 | 0.553 ± 0.018
m1 = 6.364 | 0.506 ± 0.019
m1 = 7.777 | 0.454 ± 0.023
m1 = 9.598 | 0.402 ± 0.023
m1 = 12 | 0.351 ± 0.026
m1 = 15.29 | 0.302 ± 0.027
m1 = 17.6 | 0.278 ± 0.028

O=CO [formic acid] + O
Conditions | osmotic coefficient
m1 = 0.3334 | 1.047 ± 0.0031
m1 = 0.6596 | 1.078 ± 0.0039
m1 = 0.7817 | 1.089 ± 0.0046
m1 = 0.9947 | 1.109 ± 0.0045
m1 = 1.248 | 1.133 ± 0.011
m1 = 1.439 | 1.151 ± 0.01
m1 = 1.688 | 1.173 ± 0.0071
m1 = 2.27 | 1.226 ± 0.0098
m1 = 2.667 | 1.26 ± 0.01
m1 = 2.913 | 1.28 ± 0.017
m1 = 3.395 | 1.322 ± 0.013
m1 = 3.782 | 1.35 ± 0.014
m1 = 4.446 | 1.41 ± 0.021
m1 = 4.836 | 1.44 ± 0.018
m1 = 5.352 | 1.48 ± 0.018
m1 = 5.619 | 1.49 ± 0.019

CC(=O)O [acetic acid] + O
Conditions | osmotic coefficient
m1 = 0.3254 | 1.034 ± 0.0034
m1 = 0.4489 | 1.014 ± 0.003
m1 = 0.6191 | 0.991 ± 0.013
m1 = 0.7688 | 0.9736 ± 0.0014
m1 = 1.029 | 0.9465 ± 0.0043
m1 = 1.262 | 0.925 ± 0.0036
m1 = 1.638 | 0.8942 ± 0.0068
m1 = 2.236 | 0.852 ± 0.015
m1 = 2.588 | 0.8295 ± 0.0074
m1 = 3.693 | 0.768 ± 0.009
m1 = 4.687 | 0.72 ± 0.011
m1 = 6.292 | 0.652 ± 0.014
m1 = 9.635 | 0.535 ± 0.018
m1 = 14.92 | 0.375 ± 0.03

CCC(=O)O [propanoic acid] + O
Conditions | osmotic coefficient
m1 = 0.3425 | 1.054 ± 0.0037
m1 = 0.4819 | 1.036 ± 0.0046
m1 = 0.6261 | 1.018 ± 0.0035
m1 = 0.8086 | 0.9963 ± 0.0012
m1 = 1.054 | 0.9683 ± 0.0028
m1 = 1.294 | 0.942 ± 0.013
m1 = 1.796 | 0.892 ± 0.013
m1 = 2.261 | 0.851 ± 0.015
m1 = 2.918 | 0.7984 ± 0.0078
m1 = 4.125 | 0.718 ± 0.011
m1 = 5.45 | 0.647 ± 0.014
m1 = 7.948 | 0.549 ± 0.018
m1 = 8.132 | 0.542 ± 0.018
m1 = 10.51 | 0.478 ± 0.02
m1 = 12.4 | 0.438 ± 0.023

O=C(O)CC(O)C(=O)O (centres undefined) [hydroxybutanedioic acid] + O
Conditions | osmotic coefficient
m1 = 0.1223 | 1.343 ± 0.013
m1 = 0.2625 | 0.828 ± 0.0078
m1 = 0.3917 | 0.426 ± 0.024
m1 = 0.5398 | 0.351 ± 0.026
m1 = 0.8231 | 0.441 ± 0.022
m1 = 0.9977 | 0.506 ± 0.019
m1 = 1.245 | 0.528 ± 0.018
m1 = 1.848 | 0.531 ± 0.02
m1 = 2.634 | 0.54 ± 0.018
m1 = 3.207 | 0.554 ± 0.017
m1 = 3.996 | 0.566 ± 0.017
m1 = 5.166 | 0.584 ± 0.017
m1 = 6.325 | 0.613 ± 0.017
m1 = 7.352 | 0.626 ± 0.015

O=C(O)CC(O)(CC(=O)O)C(=O)O [citric acid] + O
Conditions | osmotic coefficient
m1 = 0.2947 | 1.058 ± 0.006
m1 = 0.3878 | 1.058 ± 0.0043
m1 = 0.6515 | 1.058 ± 0.0041
m1 = 0.8686 | 1.067 ± 0.0061
m1 = 1.039 | 1.073 ± 0.0037
m1 = 1.225 | 1.082 ± 0.004
m1 = 1.753 | 1.12 ± 0.01
m1 = 2.327 | 1.17 ± 0.014
m1 = 2.699 | 1.194 ± 0.0075
m1 = 3.133 | 1.23 ± 0.0089
m1 = 3.816 | 1.288 ± 0.011
m1 = 4.436 | 1.34 ± 0.014
m1 = 5.134 | 1.4 ± 0.016
m1 = 5.522 | 1.44 ± 0.017
m1 = 5.987 | 1.47 ± 0.02
m1 = 6.701 | 1.52 ± 0.02
m1 = 7.6 | 1.58 ± 0.022
m1 = 8.205 | 1.62 ± 0.026

Reference: the NIST ThermoML archive (doi:10.1016/j.fluid.2012.05.002)
